Results as given in the OligoGym collection.
“And” between values parts separate entries of the source, which are not always exact repeats. Equal entries are not always repeated. After the bases stand the sugars from the 5' end (letter, count) and the backbone: PS all phosphorothioate, else s phosphorothioate and o phosphodiester by linkage. Methylation of C is not given here. e = 2'-O-(2-methoxyethyl) (MOE); k = constrained ethyl (cEt); d = 2'-deoxy (DNA)

Molecular target: IRF4
Settings: ASO

Sequence	target mRNA inhibition (SK-MEL-28, 4 µM) [%]	other results
TATCATATGCCCAATA (sugars k3 d10 k3, PS)	32	
TATCATGCATACCAAA (sugars k3 d10 k3, PS)	58	target mRNA inhibition (MM.1R, 0.074 µM): -4%; target mRNA inhibition (MM.1R, 0.222 µM): -7%; target mRNA inhibition (MM.1R, 0.666 µM): 3%; target mRNA inhibition (MM.1R, 2 µM): 14%
TATCCATGTTGCATGG (sugars k3 d10 k3, PS)	61	
TATGCCATGGACAAGT (sugars k3 d10 k3, PS)	19	
TCAAACTATAATTGGC (sugars k3 d10 k3, PS)	74	
TCAAAGTCATTGCTCT (sugars k4 d8 k4, PS)	57	target mRNA inhibition (MM.1R, 0.074 µM): -3%; target mRNA inhibition (MM.1R, 0.222 µM): 6%; target mRNA inhibition (MM.1R, 0.666 µM): 6%; target mRNA inhibition (MM.1R, 2 µM): 13%; target mRNA inhibition (SK-MEL-28, 0.185 µM): 4% and -4% and 0%
TCAAATCGACTGCCAC (sugars k3 d10 k3, PS)	54	
TCAACAGCAGGTTTTG (sugars k3 d10 k3, PS)	41	
TCAACCAGTTCCTCAA (sugars k3 d10 k3, PS)		target mRNA inhibition (MM.1R, 1 µM): -23%
TCAACCTGGAAGGATG (sugars k3 d10 k3, PS)	30	
TCAACTTGTGACCCAC (sugars k3 d10 k3, PS)		target mRNA inhibition (MM.1R, 1 µM): 14%
TCAATAATCTCCCAGC (sugars k3 d10 k3, PS)	55	
TCACAAAGCGGGTTCA (sugars k3 d10 k3, PS)	23	
TCACAAGCTGGGCCTT (sugars k3 d10 k3, PS)	30	
TCACCTGGCAACCTGC (sugars k4 d8 k4, PS)	28	
TCACGAGGTTGCCGAG (sugars k3 d10 k3, PS)	62	
TCAGACTGTGCTGCTC (sugars k3 d10 k3, PS)	36	
TCAGAGCTAGAACATG (sugars k3 d10 k3, PS)	38	
TCAGCTCCACTGTTAA (sugars k3 d10 k3, PS)	73	
TCAGGGAATCCCTTAT (sugars k3 d10 k3, PS)		target mRNA inhibition (MM.1R, 1 µM): 4%
TCAGTTTGTGAAGCAT (sugars e1 k2 d9 k2 e2, PS)		target mRNA inhibition (MM.1R, 1 µM): 47%
TCAGTTTGTGAAGCAT (sugars k2 d9 e3 k2, PS)		target mRNA inhibition (MM.1R, 1 µM): 39%
TCAGTTTGTGAAGCAT (sugars kkdddddddddkdkdk, PS)		target mRNA inhibition (MM.1R, 1 µM): 25%
TCATACCCAATAGTCT (sugars k3 d10 k3, PS)	52	
TCATACCCTGGATCAC (sugars k3 d10 k3, PS)	43	
TCATGATATTAGAGAC (sugars k3 d10 k3, PS)	35	

Sequence	target mRNA inhibition (SK-MEL-28, 4 µM) [%]	other results
TCATTTACTGTTACCG (sugars k3 d10 k3, PS)		target mRNA inhibition (MM.1R, 0.0625 µM): 6%; target mRNA inhibition (MM.1R, 0.25 µM): 18%; target mRNA inhibition (MM.1R, 1 µM): 56% and 40%; target mRNA inhibition (MM.1R, 4 µM): 82%
TCCAAAGCATAGAGTC (sugars k3 d10 k3, PS)	53	
TCCAAGCAATTATTCC (sugars k3 d10 k3, PS)	12	
TCCACGCGCGGAGGAC (sugars k3 d10 k3, PS)		target mRNA inhibition (MM.1R, 1 µM): -43%
TCCACTGTTAAAGCAG (sugars k3 d10 k3, PS)	55	
TCCAGATGCAGATTCC (sugars k3 d10 k3, PS)	46	
TCCAGGTGGCTCAGCA (sugars k3 d10 k3, PS)	41	
TCCATAGAGCCAGAGC (sugars k3 d10 k3, PS)		target mRNA inhibition (MM.1R, 1 µM): 20%
TCCATAGATCAACATG (sugars k3 d10 k3, PS)	45	
TCCCAACCCGCTTCTC (sugars k3 d10 k3, PS)	14	
TCCCACGCGGGAGGCT (sugars k3 d10 k3, PS)	1	
TCCCACTGGGCTTTGT (sugars k3 d10 k3, PS)	32	
TCCCAGTAGATCCTGC (sugars k3 d10 k3, PS)	40	
TCCCATCCAAGAGTAG (sugars k3 d10 k3, PS)	33	
TCCCATCGAATCTGCC (sugars k3 d10 k3, PS)		target mRNA inhibition (MM.1R, 1 µM): -5%
TCCCATGGTTACTAAT (sugars k3 d10 k3, PS)		target mRNA inhibition (MM.1R, 1 µM): -10%
TCCCGACACGCGCCGC (sugars k3 d10 k3, PS)		target mRNA inhibition (MM.1R, 1 µM): -12%
TCCCGGAGGAAGTCCC (sugars k3 d10 k3, PS)	30	
TCCTAACCCTGAGTAT (sugars k3 d10 k3, PS)	27	
TCCTCAAAGTCATTGC (sugars k3 d10 k3, PS)	32	
TCCTCAACCGCTGAAC (sugars k3 d10 k3, PS)	37	
TCCTGAGACAAGTGCT (sugars k3 d10 k3, PS)	55	
TCCTTAATTATGCAGA (sugars k3 d10 k3, PS)	44	
TCCTTTAAACAGTGCC (sugars k3 d10 k3, PS)	50	
TCCTTTAGTGTCGCCA (sugars k3 d10 k3, PS)	76	
